Results as given in ChEMBL document CHEMBL1201862, “PubChem BioAssay data set” (2004).
Active and inactive are the calls of the source.

Assays:
Bcl-2-related protein A1 = target: T1, Bcl-2-related protein A1 (Mus musculus, UniProt Q07440); format: functional;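 also: confirmatory dose–response counterscreen on Bfl-1, used to check hits from a UBC13 polyubiquitin inhibitor campaign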
T1 sequence (Q07440 whole entry): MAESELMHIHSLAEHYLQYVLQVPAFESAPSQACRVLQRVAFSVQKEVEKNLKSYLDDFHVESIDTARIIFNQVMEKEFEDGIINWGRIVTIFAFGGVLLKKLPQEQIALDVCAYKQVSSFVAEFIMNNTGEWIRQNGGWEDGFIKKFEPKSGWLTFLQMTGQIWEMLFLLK

[1] = Trypanosoma cruzi growth suppression in host cells – NIH3T3 host cells, beta-gal luminescence, confirmation (AID 2044); format: functional, cell-based;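 also: intracellular parasites grown in NIH/3T3 mouse fibroblasts as host cells; luminescent beta-galactosidase reporter signal from transgenic T. cruzi replicating inside host cells; inhibitors lower the luminescence signal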
[2] = target: T2, DNA repair and recombination protein RAD54-like (Homo sapiens, UniProt Q92698); assay: RAD54 Holliday junction migration blockers – biochemical, fluorescence, cherry-picked samples, dose series, confirmation (AID 651657); format: functional
T2 sequence (Q92698 whole entry): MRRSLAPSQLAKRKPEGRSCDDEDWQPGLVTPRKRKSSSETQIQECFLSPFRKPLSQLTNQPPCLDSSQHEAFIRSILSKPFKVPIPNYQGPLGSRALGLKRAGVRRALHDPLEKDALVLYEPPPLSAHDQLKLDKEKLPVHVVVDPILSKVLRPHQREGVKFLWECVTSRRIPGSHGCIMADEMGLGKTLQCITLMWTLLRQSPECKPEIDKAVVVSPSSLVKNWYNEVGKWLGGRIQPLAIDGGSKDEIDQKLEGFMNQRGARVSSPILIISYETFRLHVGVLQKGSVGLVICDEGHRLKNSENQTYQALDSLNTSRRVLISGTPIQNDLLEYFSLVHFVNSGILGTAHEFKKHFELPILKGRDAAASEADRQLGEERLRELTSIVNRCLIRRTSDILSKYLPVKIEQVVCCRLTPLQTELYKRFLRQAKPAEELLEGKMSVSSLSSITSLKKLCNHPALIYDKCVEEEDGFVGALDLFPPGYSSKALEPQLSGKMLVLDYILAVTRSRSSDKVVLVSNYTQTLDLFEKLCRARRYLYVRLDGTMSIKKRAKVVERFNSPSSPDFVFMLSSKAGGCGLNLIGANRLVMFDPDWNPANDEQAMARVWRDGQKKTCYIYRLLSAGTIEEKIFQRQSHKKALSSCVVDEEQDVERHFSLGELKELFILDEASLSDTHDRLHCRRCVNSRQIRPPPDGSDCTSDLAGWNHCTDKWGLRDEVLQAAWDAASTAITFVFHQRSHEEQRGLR

[3] = NIH3T3 cell viability loss – ATP luminescence, mouse fibroblasts, counter-screen, dose response (AID 2010); format: functional, cell-based;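 also: cells exposed to compound for about 90 hours before reading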
[4] = target: T3, Ubiquitin-conjugating enzyme E2 N (Homo sapiens, UniProt P61088); format: functional
T3 sequence (P61088 whole entry): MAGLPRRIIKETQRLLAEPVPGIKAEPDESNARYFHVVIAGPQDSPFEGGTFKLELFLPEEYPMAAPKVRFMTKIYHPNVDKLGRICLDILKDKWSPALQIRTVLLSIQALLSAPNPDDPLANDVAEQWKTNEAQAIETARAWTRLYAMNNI

[5] = target: T3, Ubiquitin-conjugating enzyme E2 N; format: functional; remark: listed apart in the source
Cytochrome P450 2C9 = Cytochrome P450 2C9 (Homo sapiens, UniProt P11712)
Chain of Cytochrome P450 2C9 (P11712 whole entry): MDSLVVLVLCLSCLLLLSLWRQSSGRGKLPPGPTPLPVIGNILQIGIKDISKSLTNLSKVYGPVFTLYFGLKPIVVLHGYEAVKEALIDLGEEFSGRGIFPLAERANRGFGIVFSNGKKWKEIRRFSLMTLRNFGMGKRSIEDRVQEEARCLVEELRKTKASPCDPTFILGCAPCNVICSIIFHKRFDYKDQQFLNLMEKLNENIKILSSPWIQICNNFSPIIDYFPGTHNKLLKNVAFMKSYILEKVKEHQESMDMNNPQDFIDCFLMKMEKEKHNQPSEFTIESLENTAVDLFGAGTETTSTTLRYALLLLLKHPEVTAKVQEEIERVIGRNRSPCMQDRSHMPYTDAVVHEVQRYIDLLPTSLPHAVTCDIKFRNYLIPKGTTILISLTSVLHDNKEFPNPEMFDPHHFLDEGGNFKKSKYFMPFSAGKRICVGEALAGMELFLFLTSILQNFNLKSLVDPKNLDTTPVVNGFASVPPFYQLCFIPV

HEK293 [6] = assay: cells; conditions: Homo sapiens
[7] = blockers of HIV-1 ZM109 envelope-driven cell-cell fusion – HeLa effector, CEM target cells, luciferase, cherry-pick, dose response (AID 652058); format: functional, cell-based;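 also: luciferase signal from HIV-1 Env mediated cell-cell fusion of effector and target cells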
[8] = off-target signal loss in HeLa-CEM21 co-culture – HeLa F-luc CTL cells, cherry-picked, counter-screen for HIV-1 Env fusion inhibitor project, dose response (AID 652040); format: functional, cell-based;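 also: potency for signal decrease marking cytotoxic or nonspecific inhibition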
[9] = HIV-1 AD8 envelope cell-cell fusion blockers – cherry-pick, dose response (AID 652062); format: functional, cell-based;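 also: luciferase signal from cell-cell fusion driven by HIV-1 clade B AD8 Env; potency is for inhibitors of fusion seen as a drop in luminescence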
HEK293 [10] = assay: cells; conditions: Homo sapiens; remark: listed apart in the source
[11] = blockers of HIV-1 envelope-mediated cell-cell fusion – cherry-pick, dose response (AID 652057); format: functional, cell-based
[12] = target: T4, Heat shock factor protein 1 (Mus musculus, UniProt P38532); assay: enhancement of HSF1-driven luciferase signal – cell-based, NIH3T3, luminescence, dose retest, confirmation (AID 435004); format: functional;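 also: stress induced by proteasome inhibitor MG132 added 30 min after compound; luciferase reporter driven by HSF1 response element in NIH3T3 cells; actives raise luminescence as potentiators of the MG132 stress response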
T4 sequence (P38532 whole entry): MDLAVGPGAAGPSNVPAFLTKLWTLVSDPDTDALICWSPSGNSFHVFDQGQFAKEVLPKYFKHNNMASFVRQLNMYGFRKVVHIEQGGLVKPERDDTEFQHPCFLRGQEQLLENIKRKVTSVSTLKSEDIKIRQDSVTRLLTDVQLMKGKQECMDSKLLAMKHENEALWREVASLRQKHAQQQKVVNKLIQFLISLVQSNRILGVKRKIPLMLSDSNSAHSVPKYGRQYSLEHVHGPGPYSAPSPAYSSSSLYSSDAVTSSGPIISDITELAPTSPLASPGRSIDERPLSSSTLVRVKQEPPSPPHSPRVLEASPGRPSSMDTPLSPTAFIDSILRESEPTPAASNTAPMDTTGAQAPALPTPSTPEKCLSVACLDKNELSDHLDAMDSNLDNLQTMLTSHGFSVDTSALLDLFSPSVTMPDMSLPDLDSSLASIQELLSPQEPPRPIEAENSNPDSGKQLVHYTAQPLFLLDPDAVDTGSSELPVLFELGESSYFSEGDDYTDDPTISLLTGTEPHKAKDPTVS

[13] = target: 5-hydroxytryptamine receptor 5A (Homo sapiens, UniProt P47898); assay: Counterscreen for agonists of OPRM1-OPRD1 heterodimerization: luminescence-based cell-based high throughput dose response assay to identify agonists of 5-hydroxytryptamine (serotonin) 5A receptor (HTR5A). [Related pubchem assays (depositor defined):AID504326, AID504355, AID504692, AID504904, AID504905]; format: functional
Chain of 5-hydroxytryptamine receptor 5A (P47898 whole entry): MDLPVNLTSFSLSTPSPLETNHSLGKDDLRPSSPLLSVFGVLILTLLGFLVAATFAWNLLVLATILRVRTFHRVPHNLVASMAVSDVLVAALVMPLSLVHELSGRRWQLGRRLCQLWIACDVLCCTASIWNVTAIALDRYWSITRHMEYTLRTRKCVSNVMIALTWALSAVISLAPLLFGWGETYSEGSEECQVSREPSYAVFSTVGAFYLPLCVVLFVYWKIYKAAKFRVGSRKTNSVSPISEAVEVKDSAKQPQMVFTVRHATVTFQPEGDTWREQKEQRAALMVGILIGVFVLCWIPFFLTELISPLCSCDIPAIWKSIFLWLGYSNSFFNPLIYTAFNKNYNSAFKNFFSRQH

[14] = target: Delta-type opioid receptor (Homo sapiens, UniProt P41143); assay: Counterscreen for agonists of heterodimerization of the mu 1 (OPRM1) and delta 1 (OPRD1) opioid receptors: Luminescence-based cell-based high throughput dose response assay to identify agonists of OPRD1 homodimerization. [Related pubchem assays (depositor defined):AID504326, AID504355, AID504692, AID504904, AID504905]; format: functional
Chain of Delta-type opioid receptor (P41143 whole entry): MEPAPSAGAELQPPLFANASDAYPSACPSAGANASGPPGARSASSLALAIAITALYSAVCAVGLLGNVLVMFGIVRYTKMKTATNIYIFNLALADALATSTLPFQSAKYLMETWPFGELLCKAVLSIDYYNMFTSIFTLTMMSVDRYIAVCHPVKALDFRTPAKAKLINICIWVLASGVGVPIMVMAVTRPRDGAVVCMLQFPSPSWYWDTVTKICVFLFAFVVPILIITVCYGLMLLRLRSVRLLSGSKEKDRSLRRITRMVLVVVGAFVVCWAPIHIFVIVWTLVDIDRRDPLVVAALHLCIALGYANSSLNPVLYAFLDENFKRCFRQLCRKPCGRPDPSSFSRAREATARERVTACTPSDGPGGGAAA

Mu-type opioid receptor = Mu-type opioid receptor (Homo sapiens, UniProt P35372); assay: Counterscreen for agonists of heterodimerization of the mu 1 (OPRM1) and delta 1 (OPRD1) opioid receptors: Luminescence-based cell-based high throughput dose response assay to identify agonists of OPRM1 homodimerization.; format: functional;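 also: U2OS cells expressing OPRM1 and beta-arrestin as split beta-galactosidase partners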
Chain of Mu-type opioid receptor (P35372 whole entry): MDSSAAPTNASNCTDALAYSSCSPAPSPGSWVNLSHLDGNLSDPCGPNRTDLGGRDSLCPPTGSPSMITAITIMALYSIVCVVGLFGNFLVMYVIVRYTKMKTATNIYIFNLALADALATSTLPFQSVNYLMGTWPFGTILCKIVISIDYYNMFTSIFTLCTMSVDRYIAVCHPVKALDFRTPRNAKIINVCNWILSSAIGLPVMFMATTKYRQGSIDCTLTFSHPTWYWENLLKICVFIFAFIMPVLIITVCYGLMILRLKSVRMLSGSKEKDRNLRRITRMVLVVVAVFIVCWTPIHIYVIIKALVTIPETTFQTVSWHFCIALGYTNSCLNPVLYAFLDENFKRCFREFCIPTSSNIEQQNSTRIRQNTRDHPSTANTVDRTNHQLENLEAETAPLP

Cytochrome P450 2D6 [15] = target: T5, Cytochrome P450 2D6 (Homo sapiens, UniProt P10635);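 also: CYP2D6 member of a cytochrome P450 panel assay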
T5 sequence (P10635 whole entry): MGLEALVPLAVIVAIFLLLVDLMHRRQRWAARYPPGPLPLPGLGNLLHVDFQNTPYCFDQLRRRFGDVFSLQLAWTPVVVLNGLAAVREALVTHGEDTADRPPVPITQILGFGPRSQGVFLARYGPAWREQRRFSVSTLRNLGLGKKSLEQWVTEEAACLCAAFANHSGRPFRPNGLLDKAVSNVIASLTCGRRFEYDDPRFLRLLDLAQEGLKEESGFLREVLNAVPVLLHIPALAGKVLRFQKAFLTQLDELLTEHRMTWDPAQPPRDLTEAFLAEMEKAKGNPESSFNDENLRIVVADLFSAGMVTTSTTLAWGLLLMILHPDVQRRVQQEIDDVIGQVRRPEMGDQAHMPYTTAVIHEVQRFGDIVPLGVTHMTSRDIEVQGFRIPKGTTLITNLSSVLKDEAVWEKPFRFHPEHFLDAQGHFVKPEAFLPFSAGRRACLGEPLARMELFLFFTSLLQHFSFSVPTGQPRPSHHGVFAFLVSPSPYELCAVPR

Cytochrome P450 3A4 = Cytochrome P450 3A4 (Homo sapiens, UniProt P08684);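 also: CYP3A4 tested as one member of a cytochrome P450 panel screen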
Chain of Cytochrome P450 3A4 (P08684 whole entry): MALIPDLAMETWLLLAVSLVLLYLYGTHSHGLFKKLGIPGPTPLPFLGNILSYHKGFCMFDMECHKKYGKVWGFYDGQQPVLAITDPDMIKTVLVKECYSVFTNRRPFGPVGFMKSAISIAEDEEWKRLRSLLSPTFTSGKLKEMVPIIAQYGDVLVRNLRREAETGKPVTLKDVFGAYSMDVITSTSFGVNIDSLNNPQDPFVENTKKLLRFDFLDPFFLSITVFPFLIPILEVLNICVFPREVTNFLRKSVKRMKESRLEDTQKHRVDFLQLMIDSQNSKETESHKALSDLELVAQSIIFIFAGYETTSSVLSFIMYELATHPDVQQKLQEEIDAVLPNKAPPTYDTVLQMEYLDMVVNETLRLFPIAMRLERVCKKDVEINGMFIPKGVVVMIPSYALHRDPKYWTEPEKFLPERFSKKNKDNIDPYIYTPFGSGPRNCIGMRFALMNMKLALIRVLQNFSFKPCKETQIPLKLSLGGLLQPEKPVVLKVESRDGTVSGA

[16] = target: T6, Type-1 angiotensin II receptor (Homo sapiens, UniProt P30556); assay: antagonism of angiotensin II type 1 receptor – cell-based, uHTS hits, selectivity assay for APJ receptor antagonist project, dose response (AID 463214); format: functional;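 also: antagonist potency against angiotensin II stimulated AT1 response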
T6 sequence (P30556 whole entry): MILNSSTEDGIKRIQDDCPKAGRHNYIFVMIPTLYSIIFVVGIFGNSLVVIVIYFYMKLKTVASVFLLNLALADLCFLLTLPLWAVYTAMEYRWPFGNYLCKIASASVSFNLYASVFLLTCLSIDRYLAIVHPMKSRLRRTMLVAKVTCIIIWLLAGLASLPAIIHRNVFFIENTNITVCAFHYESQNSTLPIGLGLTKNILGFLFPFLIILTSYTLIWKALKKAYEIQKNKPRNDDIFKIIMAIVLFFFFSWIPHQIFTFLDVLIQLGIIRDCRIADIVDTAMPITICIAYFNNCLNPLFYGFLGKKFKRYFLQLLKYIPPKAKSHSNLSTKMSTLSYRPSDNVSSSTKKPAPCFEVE

Beta-galactosidase = Beta-galactosidase (Escherichia coli, UniProt Q8VNN2); assay: PubChem AID 485352; format: functional
Chain of Beta-galactosidase (Q8VNN2 whole entry): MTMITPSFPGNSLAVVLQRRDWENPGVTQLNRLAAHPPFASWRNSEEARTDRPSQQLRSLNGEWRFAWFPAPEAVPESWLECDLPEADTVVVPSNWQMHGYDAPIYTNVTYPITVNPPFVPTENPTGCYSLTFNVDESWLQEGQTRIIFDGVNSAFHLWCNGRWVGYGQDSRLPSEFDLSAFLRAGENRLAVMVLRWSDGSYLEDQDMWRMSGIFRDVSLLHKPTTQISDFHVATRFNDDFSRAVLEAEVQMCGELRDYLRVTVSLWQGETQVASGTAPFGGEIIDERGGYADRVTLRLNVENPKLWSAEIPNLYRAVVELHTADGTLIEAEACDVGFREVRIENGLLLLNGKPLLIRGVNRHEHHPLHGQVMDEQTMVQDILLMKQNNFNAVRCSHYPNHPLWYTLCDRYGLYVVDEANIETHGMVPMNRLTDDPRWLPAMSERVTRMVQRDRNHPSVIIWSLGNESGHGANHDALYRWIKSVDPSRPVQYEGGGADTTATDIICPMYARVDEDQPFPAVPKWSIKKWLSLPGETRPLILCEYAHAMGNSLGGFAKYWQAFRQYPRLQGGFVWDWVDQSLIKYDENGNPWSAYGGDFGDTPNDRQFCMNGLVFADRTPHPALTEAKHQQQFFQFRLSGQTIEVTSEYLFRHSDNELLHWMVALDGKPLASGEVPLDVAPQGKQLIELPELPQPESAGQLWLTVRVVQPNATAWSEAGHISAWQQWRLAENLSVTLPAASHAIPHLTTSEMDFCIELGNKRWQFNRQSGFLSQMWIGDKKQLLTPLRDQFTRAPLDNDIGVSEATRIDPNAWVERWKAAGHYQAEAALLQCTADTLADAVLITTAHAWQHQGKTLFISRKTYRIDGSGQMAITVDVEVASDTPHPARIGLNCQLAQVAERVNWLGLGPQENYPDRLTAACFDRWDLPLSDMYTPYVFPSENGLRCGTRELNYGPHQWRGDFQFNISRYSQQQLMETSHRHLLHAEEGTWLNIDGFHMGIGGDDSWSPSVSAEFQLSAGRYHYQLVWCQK

Cytochrome P450 2C19 = Cytochrome P450 2C19 (Homo sapiens, UniProt P33261); assay: Cytochrome panel assay with activity outcomes. Panel member name: p450-cyp2c19 Compounds with AC50 equal or less than 10 uM are considered active; format: functional
Chain of Cytochrome P450 2C19 (P33261 whole entry): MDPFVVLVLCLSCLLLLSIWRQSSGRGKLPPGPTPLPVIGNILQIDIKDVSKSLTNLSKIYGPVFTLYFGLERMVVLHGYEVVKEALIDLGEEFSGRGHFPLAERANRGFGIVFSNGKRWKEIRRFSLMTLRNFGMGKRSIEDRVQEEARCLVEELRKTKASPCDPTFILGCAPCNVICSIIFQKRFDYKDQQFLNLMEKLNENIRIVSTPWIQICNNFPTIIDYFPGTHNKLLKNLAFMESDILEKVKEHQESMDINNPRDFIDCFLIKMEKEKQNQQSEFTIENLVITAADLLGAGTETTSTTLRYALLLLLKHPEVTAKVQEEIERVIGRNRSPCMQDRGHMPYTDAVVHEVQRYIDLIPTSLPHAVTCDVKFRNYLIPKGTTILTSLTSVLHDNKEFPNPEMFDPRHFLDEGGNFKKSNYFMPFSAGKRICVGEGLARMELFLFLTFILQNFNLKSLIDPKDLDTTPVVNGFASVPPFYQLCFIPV

[17] = target: T7, Short transient receptor potential channel 4 (Mus musculus, UniProt Q9QUQ5); assay: calcium entry via TRPC4 opening agents – cell-based, HEK293 TRPC4/mu-opioid, Fluo-4 calcium, dose response (AID 434937); format: functional
T7 sequence (Q9QUQ5 whole entry): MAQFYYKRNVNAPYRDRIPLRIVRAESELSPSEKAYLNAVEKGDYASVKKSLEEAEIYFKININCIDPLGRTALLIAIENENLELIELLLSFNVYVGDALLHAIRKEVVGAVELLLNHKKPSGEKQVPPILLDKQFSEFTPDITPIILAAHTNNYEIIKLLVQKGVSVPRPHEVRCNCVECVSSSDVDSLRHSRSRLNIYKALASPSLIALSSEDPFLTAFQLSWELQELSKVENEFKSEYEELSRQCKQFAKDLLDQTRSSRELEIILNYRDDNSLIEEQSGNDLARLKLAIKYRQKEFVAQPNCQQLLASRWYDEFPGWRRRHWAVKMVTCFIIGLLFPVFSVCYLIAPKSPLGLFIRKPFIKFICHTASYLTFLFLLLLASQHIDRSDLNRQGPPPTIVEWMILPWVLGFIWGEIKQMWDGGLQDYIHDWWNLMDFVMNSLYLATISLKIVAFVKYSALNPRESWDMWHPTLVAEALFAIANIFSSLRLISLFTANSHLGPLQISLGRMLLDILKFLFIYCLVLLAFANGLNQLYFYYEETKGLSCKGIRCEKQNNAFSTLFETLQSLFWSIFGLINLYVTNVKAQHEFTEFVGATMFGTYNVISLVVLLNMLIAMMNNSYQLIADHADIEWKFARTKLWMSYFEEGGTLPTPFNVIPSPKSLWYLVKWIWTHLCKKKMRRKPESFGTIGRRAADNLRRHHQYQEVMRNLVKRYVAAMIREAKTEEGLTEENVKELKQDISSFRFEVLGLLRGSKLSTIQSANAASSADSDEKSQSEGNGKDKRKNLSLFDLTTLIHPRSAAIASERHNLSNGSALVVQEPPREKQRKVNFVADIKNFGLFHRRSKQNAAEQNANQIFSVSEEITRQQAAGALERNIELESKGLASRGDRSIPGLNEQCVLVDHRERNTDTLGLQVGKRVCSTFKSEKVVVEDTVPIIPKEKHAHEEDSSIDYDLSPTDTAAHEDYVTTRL

Cytochrome P450 2D6 [18] = target: T5, Cytochrome P450 2D6; remark: listed apart in the source

With `COc1cc2nc(NCCCN3CCN(C)CC3)n3nc(-c4ccccc4)nc3c2cc1OC` the IC50 (Bcl-2-related protein A1) was > 20 µM (inactive), the EC50 [1] was 1.87 µM (active) and the AC50 [2] was 2.98 µM (active). The EC50 [3] was > 60 µM (not active), the IC50 [4] was 17.6 µM (active) and the IC50 [5] was 6.25 µM (active).

In the case of `NC(=O)c1ccccc1NC(=O)/C=C/c1cccc(Cl)c1`, the AC50 (Cytochrome P450 2C9) is reported as “inconclusive”.

In the case of `CC1CCC(NC(=O)CCn2ccc3cc(S(=O)(=O)N4CCCC4)ccc32)CC1` (stereo not drawn), the EC50 (HEK293 [6]) is reported as > 59.6 µM (inactive), the AC50 [7] is reported as 999 nM (active) and the AC50 [8] is reported as 5.19 µM (active). The AC50 [9] was 4.28 µM (active), the EC50 (HEK293 [10]) was > 59.6 µM (inactive) and the AC50 [11] was 3.53 µM (active).

For `COc1ccc(-n2cc(CNCc3cccnc3)c(-c3cccc(F)c3)n2)cc1`, the EC50 [12] was > 260 µM (inactive), the EC50 [13] was > 92.5 µM (inactive) and the EC50 [14] was > 92.5 µM (inactive). For the same compound, the EC50 (Mu-type opioid receptor) was 70.5 µM (inactive).

For `Cc1ccccc1-c1cc(Nc2ccccc2)ncn1`, the AC50 (Cytochrome P450 2D6 [15]) was 39.8 µM (inconclusive) and the AC50 (Cytochrome P450 3A4) was “inconclusive”.

For `CC(=O)Nc1cccc(C(=O)OCC(=O)c2ccc(S(=O)(=O)N3CCCCC3)cc2)c1`, the IC50 [16] was 18 µM (active) and the EC50 (Beta-galactosidase) was > 40 µM (inactive).

In the case of `CN(C)S(=O)(=O)n1cc(/C=C(\NC(=O)c2ccccc2Cl)C(=O)N2CCCC2)c2ccccc21`, the EC50 (HEK293 [6]) is reported as > 59.6 µM (inactive) and the EC50 (HEK293 [10]) is reported as > 59.6 µM (inactive).

With `N=c1ccn2c(n1)O[C@@H]1[C@@H](O)[C@H](CO)O[C@H]12` the AC50 (Cytochrome P450 2C9) was “inconclusive”, the AC50 (Cytochrome P450 3A4) was “inconclusive” and the AC50 (Cytochrome P450 2C19; read-out: AC50) was 31.6 nM (inconclusive).

With `Cn1c(CN2CCN(c3cccc(Cl)c3)CC2)nc2ccccc21` the EC50 [13] was > 92.5 µM (inactive), the EC50 [14] was > 92.5 µM (inactive) and the EC50 (Mu-type opioid receptor) was 15.7 µM (inactive). The EC50 [17] was 2.11 µM (active).

For `NCC(O)CN.Oc1c(Cl)c(Cl)c(Cl)c(Cl)c1Cl`, the AC50 (Cytochrome P450 3A4) was “inactive”, the AC50 (Cytochrome P450 2C19) was “inactive” and the AC50 (Cytochrome P450 2D6 [18]) was “inactive”.
